Where two headings read alike, the source gives them in different places.
How the values were obtained:
MCF-7 cells = assay: Test 1: growth inhibition of MCF-7 human breast cancer cells; assay type: cell-based; details: read-out: GI50 (50% growth inhibition concentration)
Method: Used in the test were MCF-7 cells which were established from human breast cancer and were cultured routinely under the conditions of 37° C. and 5% CO2, in MEM medium supplemented with 10% fetal calf serum, 25 mM of HEPES and 0.1 mg/ml of kanamycin. The MCF-7 cells in a logarithmic growth phase were treated with trypsin/EDTA to prepare single cell suspension adjusted to 4.0×10^4 cells/ml in MEM medium (supplemented with 10% fetal calf serum, 25 mM of HEPES and 0.1 mg/ml of kanamycin). Test compounds were dissolved in DMSO and diluted with RPMI 1640 medium (supplemented with 10% fetal calf serum, 25 mM of HEPES and 0.1 mg/ml of kanamycin) to a concentration of 2.0×10^−9−2.0×10^−4 M.
The cell suspension was filled in a 96-wells microplate at a rate of 0.1 ml per well and was cultured for 24 hours so as to make the cells adhered to the microplate. Then, it was added with 0.1 ml of the sample solution and cultured at 37° C. for 72 hours in 5% CO2.
50% Growth inhibition concentrations (GI50 μM) were calculated from growth inhibitions at various sample concentrations.

[1] = system: human colonic cancer WiDr; assay: Test 2: human colonic cancer WiDr transplanted subcutaneously in nude mice, relative tumor growth T/C; assay type: in vivo, BALB/c nude mice; details: 200 mg/kg intraperitoneally, once a day, six times a week, two weeks; effective (+) = T/C less than 50% and Mann-Whitney significant at one-sided 1%
Description: Mutant BALB/c nude mice were used for routine culture of 2-mm-square piece of human colonic cancer WiDr which was transplanted subcutaneously into left breast of each of the mice. The mice were separated for testing into groups each of five mice at the time of the tumor in its logarithmic growth phase. The samples prepared by dissolving test compounds in physiological saline solution or suspending them in 1% hydroxypropyl cellulose (HPC), using an agate mortar, were intraperitoneally administered at a rate of 200 mg/kg, once a day and six times a week in total, for two weeks. Major and minor axes of the tumor mass were measured on a daily basis to calculate tumor volume. […] As a result, the compound according to the present invention was effective whereas the comparative compound A was ineffective.

[2] = Homo sapiens, MCF7, cultured 72 hours with sample

| Compound | melting point | GI50 (MCF-7 cells; [2]) [µM] | GI50 (MCF-7 cells; cultured 72 hours with sample) [µM] | antitumor effect judged from T/C (%) of the last day [1] |
| --- | --- | --- | --- | --- |
| CN1CCC(N(C)c2nc(N3CCOCC3)nc(-n3c(C(F)F)nc4c(Cl)cc(N)cc43)n2)CC1 | 194 °C (dec.) | – | – | – |
| CC1(C)CN(c2nc(N3CCOCC3)nc(-n3c(C(F)F)nc4c(Cl)cc(N)cc43)n2)CCO1 [compound 2, 2-(6-amino-4-chloro-2-difluoromethylbenzimidazol-1-yl)-4-(2,2-dimethylmorpholino)-6-morpholino-1,3,5-triazine] | 238 °C (dec.) | 0.08 | – | – |
| Nc1cc(Cl)c2nc(C(F)F)n(-c3nc(N4CCOCC4)nc(N4CCCC4CO)n3)c2c1 (stereo not drawn) [compound 3, 2-(6-amino-4-chloro-2-difluoromethylbenzimidazol-1-yl)-4-(2-hydroxymethylpyrrolidin-1-yl)-6-morpholino-1,3,5-triazine] | 256 °C (dec.) | 0.27 | – | – |
| OCC1CCCN1c1nc(N2CCOCC2)nc(-n2c(C(F)F)nc3c(O)cccc32)n1 (stereo not drawn) [compound 5, 2-(2-difluoromethyl-4-hydroxybenzimidazol-1-yl)-4-(2-hydroxymetylpyrrolidin-1-yl)-6-morpholino-1,3,5-triazine] | – | – | 0.06 | – |
| Oc1ccc2c(nc(C(F)F)n2-c2nc(N3CCOCC3)nc(N3CCOCC3)n2)c1Cl [compound 6, 2-(4-chloro-2-difluoromethyl-5-hydroxybenzimidazol-1-yl)-4,6-dimorpholino-1,3,5-triazine] | > 250 °C | 0.08 | – | – |
| CN(C)c1nc(N(C)C)nc(N(C)C)n1 [compound D, hexamethylmelamine, reference compound] | – | > 100 | – | – |
| c1cn(-c2nc(N3CCOCC3)nc(N3CCOCC3)n2)cn1 [compound C, 2-(imidazol-1-yl)-4,6-dimorpholino-1,3,5-triazine, reference compound] | – | 20 | – | – |
| C[C@@H]1OCCN(c2cc(N3CCOCC3)nc(-n3cnc4ccccc43)n2)[C@H]1C (relative stereo) [compound A, 2-(benzimidazol-1-yl)-4-(trans-2,3-dimethylmorpholino)-6-morpholinopyrimidine, reference compound] | – | 2.2 | – | ineffective |
| Cc1nc2ccccc2n1-c1nc(N2CCOCC2)nc(N2CCOCC2)n1 [compound B, 2-(2-methylbenzimidazol-1-yl)-4,6-dimorpholino-1,3,5-triazine, reference compound] | – | 3.7 | – | – |
| OCC1CCCN1c1cc(N2CCOCC2)nc(-n2c(C(F)F)nc3c(O)cccc32)n1 (stereo not drawn) [compound 1, 2-(2-difluoromethyl-4-hydroxybenzimidazol-1-yl)-4-(2-hydroxymethylpyrrolidin-1-yl)-6-morpholinopyrimidine] | 195 to 198 °C | 0.07 | – | – |
